Reference: paper PMC7894522, “Structure Based Design of Bicyclic Peptide Inhibitors of RbAp48” (Angewandte Chemie (International Ed. in English), 2020)
Blank lines part the entries; values can stand above or below the molecule they belong to. Starred links: 1 amine or outer side, 2 acyl side, 3 side chain; linkers in the order of their positions; H or OH if unused. Positions of bridges follow the written chain, without caps; N, C: chain ends. Residues, ends and D or L forms follow the SMILES beside them. mXylylene = c1cc(C[*:1])cc(C[*:2])c1; pXylylene = c1cc(C[*:2])ccc1C[*:1]

Biological target: RbAp48 (Homo sapiens, UniProt Q09028)
Test: Competitive fluorescence polarization (FP) assay using complex of peptide 1 and RbAp48
Format: binding
Set-up: Full length RbAp48 was cloned; His tag followed by 3C cleavage site (N, cleaved yes); made in house; host or cells: Sf9 insect cells
Conditions: for IC50: Supplemental Table 2, competitive FP, tracer 1 nM, RbAp48 15 nM, pH 7.5, 30 min room temperature, read-out: IC50; for FP activity in words: competitive FP assay
Method: The binding affinity of our library of synthetic cyclic peptides was evaluated by a competitive fluorescence polarization (FP) assay using a complex formed by peptide 1 and RbAp48. To reduce the length of the peptide it was truncated to the amino acids which seemed most critical according to the crystal structure (residues 676–689, pdb:4pbz). […] We chose to use a cyclization approach to regain affinity, that is, not to induce more interactions but through minimizing the entropic penalty upon binding by reducing the flexibility of the peptide. To this end two amino acids were chosen which are facing one another in the structure (see Figure 1 B/D/E). Two peptides were designed where glutamic acid was used in position 676 (4) or position 680 (5) and lysine in position 688 for both peptides (see Table 1). The macrocycles were formed by connecting the side chains via an amide bond (see Figure 1 D/E). Peptide synthesis was performed on Rink‐amide resin using the Fmoc‐strategy incorporating Fmoc‐L‐Glu(All)‐OH and Fmoc‐L‐Lys(Alloc)‐OH at the sites for cyclization. After completion of the linear synthesis the allyl protecting groups were removed using Pd^0 catalysis and the amide link was formed by using PyBOP. […] Therefore, a range of peptides was synthesized which were cyclized using the same amino acid positions but via a cysteine alkylation strategy (see Figure 1 D/E and Table 1). In this method the residues used for cyclization are replaced with cysteine and benzylic dibromides act as crosslinkers on the unprotected peptides. ^[11] Previous research has shown that such linkers can effectively stabilize cyclic peptides and yield high affinity ligands for protein–protein interaction inhibition. ^[12] Such a linker introduces a xylene group in close vicinity of the hydrophobic patch potentially reconstituting the lost key hydrophobic interactions. To explore a variety of macrocycle conformations we used either ortho‐, meta‐ or para‐substituted dibromides to exchange the linker in both 4 and 5 (see Figure 1 D/E and Table 1). ^[13]
Protein expression and purification
RbAp48 was expressed and purified by the Dortmund Protein Facility. Full length RbAp48 was cloned into a pOPIN vector ligating it to an N-terminal His tag followed by a 3C cleavage site. The protein was expressed from Sf9 cells for 48 h. Cells were harvested and lysed and the protein was purified by loading onto a HisTrap FF crude 5 ml column followed by on-column cleavage using Precission protease. The cleaved protein was then further purified using a HiLoad 26/60 Superdex 200 column.
Fluorescence polarization assay
Fluorescence polarization assays were performed in 384 wells plates in 80 µl volumes. The assay buffer contains 20 mM Tris-HCl, 150 mM NaCl, 0.01% Tween-20 at pH 7.5. The concentration of the fluorescently labelled peptides was 1 nM plates were incubated at room temperature for 30 min before they were read on a Tecan Spark plate reader (λex = 485 nm, λem = 535 nm).
For competitive assays the same conditions were used with a tracer concentration of 1 nM was used and a protein concentration of 15 nM .

Chain of RbAp48 (Q09028 whole entry): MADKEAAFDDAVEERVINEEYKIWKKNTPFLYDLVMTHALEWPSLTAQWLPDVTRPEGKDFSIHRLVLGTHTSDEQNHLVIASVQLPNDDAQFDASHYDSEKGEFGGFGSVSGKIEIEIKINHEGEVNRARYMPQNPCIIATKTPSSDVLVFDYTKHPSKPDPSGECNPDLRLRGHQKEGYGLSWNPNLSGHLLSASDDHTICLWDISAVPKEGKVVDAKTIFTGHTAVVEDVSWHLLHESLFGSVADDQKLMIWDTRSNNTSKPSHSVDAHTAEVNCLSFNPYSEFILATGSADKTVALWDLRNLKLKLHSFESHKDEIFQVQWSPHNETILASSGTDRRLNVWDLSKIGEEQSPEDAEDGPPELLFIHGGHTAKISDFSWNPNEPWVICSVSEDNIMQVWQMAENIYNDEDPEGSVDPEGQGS

Structure (SMILES): CC(=O)N[C@H]1CSCc2cccc(c2)CSC[C@@H](C(=O)N[C@@H](C)C(N)=O)NC(=O)[C@@H]2CCCN2C(=O)[C@H](CCCCN)NC(=O)[C@H](Cc2ccc(O)cc2)NC(=O)[C@@H]2CCCN2C(=O)[C@H](CCCNC(=N)N)NC(=O)[C@H](CCCNC(=N)N)NC(=O)[C@H](C)NC(=O)[C@H](C)NC(=O)[C@H](CCCNC(=N)N)NC(=O)[C@H](CCCCN)NC(=O)[C@@H]2CCCN2C1=O [Peptide 20] (Ac-CPKRAARRPYKPCA-NH2; linker 1-13 via mXylylene)
- IC50: 22.3 ± 0.03 nM
- FP activity in words: IC50 values similar to those of 7 and 8

Structure (SMILES): CC(=O)N[C@H]1CSCc2ccc(cc2)CSC[C@@H](C(=O)N[C@@H](C)C(N)=O)NC(=O)[C@@H]2CCCN2C(=O)[C@H](CCCCN)NC(=O)[C@H](Cc2ccc(O)cc2)NC(=O)[C@@H]2CCCN2C(=O)[C@H](CCCNC(=N)N)NC(=O)[C@H](CCCNC(=N)N)NC(=O)[C@H](C)NC(=O)[C@H](C)NC(=O)[C@H](CCCNC(=N)N)NC(=O)[C@H](CCCCN)NC(=O)[C@@H]2CCCN2C1=O [Peptide 21] (Ac-CPKRAARRPYKPCA-NH2; linker 1-13 via pXylylene)
- IC50: 25 ± 7.3 nM
- FP activity in words: IC50 values similar to those of 7 and 8

Structure (SMILES): CC(=O)N[C@H]1CSCc2cccc(c2)CSC[C@@H](C(=O)N[C@@H](C)C(N)=O)NC(=O)[C@@H]2CCCN2C(=O)[C@H](CCCCN)NC(=O)[C@H](Cc2ccc(O)cc2)NC(=O)[C@@H]2CCCN2C(=O)[C@H](CCCNC(=N)N)NC(=O)[C@H](CCCNC(=N)N)NC(=O)[C@H](C)NC(=O)[C@H](C)NC(=O)[C@H](Cc2c[nH]cn2)NC(=O)[C@H](CCCCN)NC(=O)[C@H]([C@@H](C)O)NC1=O [Peptide 24] (Ac-CTKHAARRPYKPCA-NH2; linker 1-13 via mXylylene)
- IC50: 265 ± 7.4 nM

The next lines start with the values.

- IC50: > 10000 nM
Structure (SMILES): CC(=O)N[C@H]1CSCc2ccc(cc2)CSC[C@@H](C(=O)N[C@@H](CC(N)=O)C(N)=O)NC(=O)[C@@H]2CCCN2C(=O)[C@H](CC(C)C)NC(=O)[C@H](Cc2ccc(O)cc2)NC(=O)[C@@H]2CCCN2C(=O)[C@H](Cc2c[nH]cn2)NC(=O)[C@H](CCCNC(=N)N)NC(=O)[C@H](C)NC(=O)[C@H](C)NC(=O)[C@H](Cc2c[nH]cn2)NC(=O)[C@H](Cc2c[nH]c3ccccc23)NC(=O)[C@@H]2CCCN2C1=O [Peptide 19] (Ac-CPWHAARHPYLPCN-NH2; linker 1-13 via pXylylene)

- IC50: 315 ± 57.8 nM
Structure (SMILES): CC(=O)N[C@H]1CSCc2cccc(c2)CSC[C@@H](C(=O)N[C@@H](C)C(N)=O)NC(=O)[C@@H]2CCCN2C(=O)[C@H](CCCCN)NC(=O)[C@H](Cc2ccc(O)cc2)NC(=O)[C@@H]2CCCN2C(=O)[C@H](CCCNC(=N)N)NC(=O)[C@H](CCCNC(=N)N)NC(=O)[C@H](C)NC(=O)[C@H](C)NC(=O)[C@H](CCCNC(=N)N)NC(=O)[C@H](Cc2c[nH]c3ccccc23)NC(=O)[C@H]([C@@H](C)O)NC1=O [Peptide 22] (Ac-CTWRAARRPYKPCA-NH2; linker 1-13 via mXylylene)

- IC50: 245 ± 29.3 nM
Structure (SMILES): CC(=O)N[C@H]1CSCc2ccc(cc2)CSC[C@@H](C(=O)N[C@@H](C)C(N)=O)NC(=O)[C@@H]2CCCN2C(=O)[C@H](CCCCN)NC(=O)[C@H](Cc2ccc(O)cc2)NC(=O)[C@@H]2CCCN2C(=O)[C@H](CCCNC(=N)N)NC(=O)[C@H](CCCNC(=N)N)NC(=O)[C@H](C)NC(=O)[C@H](C)NC(=O)[C@H](CCCNC(=N)N)NC(=O)[C@H](Cc2c[nH]c3ccccc23)NC(=O)[C@H]([C@@H](C)O)NC1=O [Peptide 23] (Ac-CTWRAARRPYKPCA-NH2; linker 1-13 via pXylylene)

- IC50: 303 ± 85.9 nM
Structure (SMILES): CC(=O)N[C@H]1CSCc2ccc(cc2)CSC[C@@H](C(=O)N[C@@H](C)C(N)=O)NC(=O)[C@@H]2CCCN2C(=O)[C@H](CCCCN)NC(=O)[C@H](Cc2ccc(O)cc2)NC(=O)[C@@H]2CCCN2C(=O)[C@H](CCCNC(=N)N)NC(=O)[C@H](CCCNC(=N)N)NC(=O)[C@H](C)NC(=O)[C@H](C)NC(=O)[C@H](Cc2c[nH]cn2)NC(=O)[C@H](CCCCN)NC(=O)[C@H]([C@@H](C)O)NC1=O [Peptide 25] (Ac-CTKHAARRPYKPCA-NH2; linker 1-13 via pXylylene)
